We go through ten compounds from US8927541B2, “Tricyclic antibiotics” (Basilea Pharmaceutica AG, priority 2009, dated 2015).

A value given as a limit tells only on which side of the number the result lay.

Holding throughout (format): cell-based
The subject of test [1] is Escherichia coli ATCC2592. The test can be described thus: Antimicrobial activity assay, MIC by broth microdilution. The note with it: 35° C., 20 to 24 h. How it is done: (§1) The antibacterial activity of compounds is determined by the minimal inhibitory concentration (MIC) method. MICs for all bacteria except pneumococci and Haemophilus influenzae are obtained by broth microdilution with cation-adjusted Mueller-Hinton broth (CAMHB; BBL), according to CLSI guidelines (National Committee for Clinical Laboratory Standards. 2003. Methods for dilution antimicrobial susceptibility tests for bacteria that grow aerobically, 5th ed.; a approved standard M7-A6. National Committee for Clinical Laboratory Standards, Wayne, Pa.), with the following modifications: (i) for pneumococci CAMHB is supplemented with 5% (^v/v) horse serum; (ii) for Haemophilus influenzae CAMHB is supplemented with 5% (^v/v) Fildes enrichment (BBL) (Pankuch, G. A., Hoellman, D. B., Lin, G., Bajaksouzian, S., Jacobs, M. R., and Appelbaum, P. C. 1998. Activity of HMR 3647 compared to those of five agents against Haemophilus influenzae and Moraxella catarrhalis by MIC determination and time-kill assay. Antimicrob. Agents Chemother. 42:3032-3034). Microtiter plates are incubated at 35° C. in ambient air for 20 to 24 h, then inspected using an illuminated microtiter plate reader fitted with a magnifying mirror (MIC 2000; Cooke Laboratory Products, Alexandria, Va.). Compounds of the present invention are tested against several bacteria strains comprising some Acinetobacter baumannii, Enterococcus faecalis, Enterococcus faecium, Escherichia coli, Haemophilus influenzae, Klebsiella pneumoniae, Pseudomonas aeruginosa, Staphylococcus aureus, Staphylococcus epidermidis, Streptococcus pyogenes; Enterobacter aerogenes; Enterobacter cloacae and Streptococcus pneumoniae. All exemplified compounds have a MIC values for Staphylococcus aureus ATCC29213, Staphylococcus epidermidis ATCC14990 and Streptococcus pneumoniae ATCC49619 lower or equal to 8 mg/L except examples 25 and 56 for Staphylococcus epidermidis ATCC14990 and examples 20, 49, 51, 56, 58, 60, 66 and 76 for Streptococcus pneumoniae ATCC4961.
In general terms: Dilution methods test growth across graded concentrations, often in twofold steps.

Test [2] has as its system Staphylococcus aureus and/or Staphylococcus epidermidis and/or Streptococcus pneumoniae and/or Escherichia coli. As to the kind of experiment: MIC, summary statement for staphylococci, pneumococci and E. coli. The conditions noted are these: 'generally'. How it is done:
(§2) The antibacterial activity of compounds is determined by the minimal inhibitory concentration (MIC) method. MICs for all bacteria except pneumococci and Haemophilus influenzae are obtained by broth microdilution with cation-adjusted Mueller-Hinton broth (CAMHB; BBL), according to CLSI guidelines (National Committee for Clinical Laboratory Standards. 2003. Methods for dilution antimicrobial susceptibility tests for bacteria that grow aerobically, 5th ed.; a approved standard M7-A6. National Committee for Clinical Laboratory Standards, Wayne, Pa.), with the following modifications: (i) for pneumococci CAMHB is supplemented with 5% (^v/v) horse serum; (ii) for Haemophilus influenzae CAMHB is supplemented with 5% (^v/v) Fildes enrichment (BBL) (Pankuch, G. A., Hoellman, D. B., Lin, G., Bajaksouzian, S., Jacobs, M. R., and Appelbaum, P. C. 1998. Activity of HMR 3647 compared to those of five agents against Haemophilus influenzae and Moraxella catarrhalis by MIC determination and time-kill assay. Antimicrob. Agents Chemother. 42:3032-3034). Microtiter plates are incubated at 35° C. in ambient air for 20 to 24 h, then inspected using an illuminated microtiter plate reader fitted with a magnifying mirror (MIC 2000; Cooke Laboratory Products, Alexandria, Va.). […]

The subject of test [3] is Streptococcus pneumoniae ATCC49619. The test can be described thus: Antimicrobial activity assay, MIC by broth microdilution (CAMHB with 5% horse serum). The conditions noted are these: 35° C., 20 to 24 h. How it is done: as §1
In test [4] the test system is Staphylococcus aureus and/or Staphylococcus epidermidis and/or Streptococcus pneumoniae. As to the kind of experiment: MIC, summary statement for staphylococci and pneumococci. The note with it: 'generally'. The method, then:
as §2

In the case of `COc1ccc2ncc3c(c2n1)N(C)C(c1ccc(NC(=O)c2ccc4c(c2)NC(=O)CS4)cn1)CO3` (stereo not drawn) [Example 27, 3-oxo-3,4-dihydro-2H-benzo[1,4]thiazine-6-carboxylic acid [6-(6-methoxy-4-methyl-3,4-dihydro-2H-1-oxa-4,5,9-triaza-phenanthren-3-yl)-pyridin-3-yl]-amide], the MIC in test [1] and in test [2] was at most 8 µg/mL in each case.

As to `COc1ccc2ncc3c(c2n1)CC([C@H]1CC[C@H](NC(=O)c2ccc4c(c2)NC(=O)CS4)CC1)CN3` (relative stereo) [Example 76, 3-oxo-3,4-dihydro-2H-benzo[1,4]thiazine-6-carboxylic acid [trans-4-(6-methoxy-1,2,3,4-tetrahydro-1,5,9-triaza-phenanthren-3-yl)-cyclohexyl]-amide], in test [3], the MIC is over 8 µg/mL. On the same count and under the same terms, then `COc1ccc2ncc3c(c2c1)CC(n1cc(NCCSc2cccs2)cn1)CO3` (stereo not drawn) [Example 20, [1-(6-methoxy-3,4-dihydro-2H-1-oxa-9-aza-phenanthren-3-yl)-1H-pyrazol-4-yl]-[2-(thiophen-2-ylsulfanyl)-ethyl]-amine], with over 8 µg/mL.

For `COc1ccc2ncc3c(c2c1)CC(N1CCC(NC(=O)c2ccc4c(c2)NC(=O)CS4)CC1)CO3` (stereo not drawn) [Example 1, 3-oxo-3,4-dihydro-2H-benzo[1,4]thiazine-6-carboxylic acid [1-(6-methoxy-3,4-dihydro-2H-1-oxa-9-aza-phenanthrene-3-yl)-piperidin-4-yl]-amide], the MIC in test [1] was at most 8 µg/mL.

In turn, `COc1ccc2ncc3c(c2c1)CC(n1cc(NC(=O)c2ccc4c(c2)NC(=O)CS4)cn1)CO3` (stereo not drawn) [Example 4, 3-oxo-3,4-dihydro-2H-benzo[1,4]thiazine-6-carboxylic acid [1-(6-methoxy-3,4-dihydro-2H-1-oxa-9-aza-phenanthrene-3-yl)-1H-pyrazol-4-yl]-amide] gave an MIC in test [1] of at most 8 µg/mL. With `O=C1CSc2ccc(C(=O)N[C@H]3CC[C@H](C4COc5cnc6ccccc6c5C4)CC3)cc2N1` (relative stereo) [Example 50, 3-oxo-3,4-dihydro-2H-benzo[1,4]thiazine-6-carboxylic acid [trans-4-(3,4-dihydro-2H-1-oxa-9-aza-phenanthren-3-yl)-cyclohexyl]-amide], the MIC in test [4] was at most 8 µg/mL. `COc1ccc2ncc3c(c2c1)CC(N1CCC(NCc2ccc4c(c2)NC(=O)CO4)CC1)CS3` (stereo not drawn) [Example 3, 6-{[1-(6-methoxy-3,4-dihydro-2H-1-thia-9-aza-phenanthrene-3-yl)-piperidin-4-ylamino]-methyl}-4H-benzo[1,4]oxazin-3-one] displayed an MIC in test [1] of at most 8 µg/mL. Same read-out and setting: then `COc1ccc2ncc3c(c2c1)CC(N1CCC(NCc2ccc4c(c2)NC(=O)CS4)CC1)CO3` (stereo not drawn) [Example 2, 6-{[1-(6-methoxy-3,4-dihydro-2H-1-oxa-9-aza-phenanthrene-3-yl)-piperidin-4-ylamino]-methyl}-4H-benzo[1,4]thiazine-3-one], with at most 8 µg/mL. Turning to `COc1ccc2ncc3c(c2n1)NC([C@H]1CC[C@H](NC(=O)c2ccc4c(c2)NC(=O)CO4)CC1)CO3` (relative stereo) [Example 35, 3-oxo-3,4-dihydro-2H-benzo[1,4]oxazine-6-carboxylic acid [trans-4-(6-methoxy-3,4-dihydro-2H-1-oxa-4,5,9-triaza-phenanthren-3-yl)-cyclohexyl]-amide], the MIC in test [1] and in test [2] was at most 8 µg/mL each time.

Turning to `COc1ccc2ncc3c(c2n1)OC([C@H]1CC[C@H](NC(=O)c2ccc4c(c2)NC(=O)CS4)CC1)CN3C` (relative stereo) [Example 49, 3-oxo-3,4-dihydro-2H-benzo[1,4]thiazine-6-carboxylic acid [trans-4-(6-methoxy-1-methyl-2,3-dihydro-1H-4-oxa-1,5,9-triaza-phenanthren-3-yl)-cyclohexyl]-amide], the MIC in test [3] is over 8 µg/mL.

For orientation: MIC means the least concentration at which growth counts as inhibited.
